Holding throughout (assay type): biochemical
In assay [1] the target is human stromelysin (Sln) (Homo sapiens, UniProt P08254). Description: In vitro MMP inhibition assay (hydrolysis of fluorogenic MCA peptide substrate), stromelysin. Here is the method: The catalytic domain of human stromelysin (Sln) was obtained by expression and purification of a C-terminally truncated prostromelysin-1 from E. coli host BL21 (see Marcy et al. Biochem., 1991, 30, 6476). The subsequent activation of the mature form (Sln) was completed with 2 mM APMA for 1 hour at 37° C., followed by separation using a sizing column.
(§1) Assays were performed in assay buffer (50 mM Tricine pH 7.5, 200 mM sodium chloride, 10 mM calcium chloride, 0.5 mM zinc acetate containing 2% dimethyl sulfoxide (DMSO)) once the substrate and inhibitor were diluted into it. Stock solutions of inhibitors were prepared in 100% DMSO. Stock solutions of the substrate were prepared in 100% DMSO at a concentration of 6 mM.
(§2) The assay method was based on the hydrolysis of MCA-Pro-Leu-Gly-Leu-DPA-Ala-Arg-NH2 (American Peptide Co.) at 37° C. (see Knight, C. G. et al., FEBS, 1992, 296, 263-266). The fluorescence changes were monitored with a Perkin-Elmer LS-50B fluorimeter using an excitation wavelength of 328 nm and an emission wavelength of 393 nm. The substrate concentration used in the assays was 10 μM. The inhibitor was diluted into the assays from a solution in 100% DMSO, and controls substituted an equal volume of DMSO so that the final DMSO concentration from inhibitor and substrate dilution in all assays was 2%. […] Proper determination of steady-state rates of substrate cleavage required assay lengths of 60 minutes to allow for complete equilibration of the enzyme-inhibitor complex.
(§3) The Km for the MCA peptide substrate with the matrix metalloproteinases is quite high and exceeds its solubility under assay conditions. Consequently, the apparent Ki (Ki,app) was determined to describe the strength of inhibition. However, in this case, Ki,app would be essentially equal to Ki since [S]<<Km. For the determination of Ki,app, the concentration of the inhibitor was varied at a constant and low concentration of substrate and the steady-state rates of fluorescence change determined. In most cases absorptive quench due to the presence of ligand was not observed. For slow-binding inhibitors, onset of inhibition curves were collected for at least 45 minutes so that equilibrium was established. Steady-state rates of fluorescence change were obtained by fitting a curve to an equation for a single exponential decay containing a linear phase. The fitted value of the linear phase was taken as the steady-state rate. The steady-state rates were fitted to the Michaelis equation describing competitive inhibition by non-linear methods. Data resulting from tight-binding inhibition was analyzed, and Ki,app determined by fitting the data to the tight-binding equation of Morrison (Biochem. Biophys. Acta, vol. 185, pp. 269-286 (1969)) by non-linear methods.
(§4) All Ki values are in nM units.

The target of assay [2] is T1, human collagenase-3 (Coll3) (Homo sapiens, UniProt P45452).
T1 construct: catalytic domain liberated with APMA
Description: In vitro MMP inhibition assay (hydrolysis of fluorogenic MCA peptide substrate), collagenase-3. Particulars: Table 1; Ki,app; MCA peptide substrate 10 μM, 37° C., pH 7.5, 2% DMSO. Here is the method:
The propeptide and catalytic domain of human collagenase-3 (Coll3) was expressed in E. coli as an N-terminal fusion protein with ubiquitin. After purification of the fusion from inclusion bodies, the catalytic domain was liberated by treatment with 2 mM APMA at room temperature overnight. Final purification was completed using copper chelate chromatography.
as §1, §2, §3, §4

For assay [3], the target named is human progelatinase A (GelA) (Homo sapiens, UniProt P08253). Description: In vitro MMP inhibition assay (hydrolysis of fluorogenic MCA peptide substrate), gelatinase A. As for the experimental part: The catalytic and fibronectin-like portion of human progelatinase A (GelA) was expressed as a fusion protein with ubiquitin in E. Coli. Assays were carried out on autocatalytically activated material.
as §1, §2, §3, §4

Setting [4] is: Table 1, Ki,app, MCA peptide substrate 10 μM, 37° C., pH 7.5, 2% DMSO, read-out: Sin Ki.
[5] abbreviates: Table 1, Ki,app, MCA peptide substrate 10 μM, 37° C., pH 7.5, 2% DMSO, read-out: Gel A.

Read-outs that look alike come from different tables or passages of the source.

Sequence of human stromelysin (Sln) (P08254 100-272 limits assumed): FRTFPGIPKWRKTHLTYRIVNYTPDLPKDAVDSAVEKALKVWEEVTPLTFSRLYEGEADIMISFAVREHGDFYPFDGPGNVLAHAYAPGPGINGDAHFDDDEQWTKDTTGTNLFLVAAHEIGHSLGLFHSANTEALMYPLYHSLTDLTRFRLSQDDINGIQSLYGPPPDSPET
Sequence of human progelatinase A (GelA) (P08253 110-446 limits assumed): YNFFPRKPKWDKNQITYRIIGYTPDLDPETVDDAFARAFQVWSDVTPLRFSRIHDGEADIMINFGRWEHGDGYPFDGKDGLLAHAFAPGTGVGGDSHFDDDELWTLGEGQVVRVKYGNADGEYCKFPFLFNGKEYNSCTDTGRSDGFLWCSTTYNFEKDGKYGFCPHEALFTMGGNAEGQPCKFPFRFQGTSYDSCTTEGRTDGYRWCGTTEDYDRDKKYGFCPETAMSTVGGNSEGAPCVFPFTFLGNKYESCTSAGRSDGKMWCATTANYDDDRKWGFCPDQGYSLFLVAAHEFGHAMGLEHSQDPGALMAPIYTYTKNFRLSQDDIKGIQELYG

Consider `CC(C)(SCc1nccn1Cc1ccccc1)[C@@H](NS(=O)(=O)c1ccc(Oc2ccc(F)cc2)cc1)C(=O)O` [Example 3a, S--[(1-Benzyl-1H-imidazol-2-yl)methyl]--N--[4-(4-fluorophenoxy)benzenesulfonyl]-D-penicillamine], for which the Ki in assay [1] (setting [4]) was 1300 nM; in assay [2] it was 200 nM; in assay [3] (setting [5]) it was 11 nM.

As to `CC(C)(SCC(=O)O)[C@@H](NS(=O)(=O)c1ccc(Oc2ccc(F)cc2)cc1)C(=O)NO` [Example 12, 2(S)--N-hydroxy-3-methyl-3-(carboxymethyl)sulfanyl-2-[(4-(4-fluorophenoxy)benzenesulfonyl)amino]butanamide], the Ki in assay [1] (setting [4]) amounted to 5.7 nM; in assay [2], 0.27 nM; in assay [3] (setting [5]), 0.53 nM.

For `CSC(C)(C)[C@@H](NS(=O)(=O)c1ccc(Oc2ccccc2)cc1)C(=O)O` [Example 6a, S-Methyl--N--[4-(phenoxy)benzenesulfonyl]-D-penicillamine], the figures for the Ki in assay [1] (setting [4]), in assay [2] and in assay [3] (setting [5]) were 4850 nM, 661 nM and 351 nM, respectively.

Turning to `CC(C)(C)OC(=O)CSC(C)(C)[C@@H](NS(=O)(=O)c1ccc(Oc2ccc(F)cc2)cc1)C(=O)O` [Example 3n, S--(t-Butoxycarbonyl)methyl--N--[4-(4-fluorophenoxy)benzenesulfonyl]-D-penicillamine], the Ki in assay [1] (setting [4]) came to 5700 nM; in assay [2] it was 574 nM; in assay [3] (setting [5]) it was 183 nM.

Turning to `Cc1ccc(Oc2ccc(S(=O)(=O)N[C@@H](C(=O)NO)C(C)(C)SCc3ccccn3)cc2)cc1` [Example 9g, 2(S)--N-hydroxy-3-methyl-3-(pyrid-2-yl)methylsulfanyl-2-[(4-(4-methylphenoxy)benzenesulfonyl)amino]butanamide], the Ki in assay [1] (setting [4]) was 0.73 nM; in assay [3] (setting [5]), 0.036 nM.

As for `CC(C)(C)[C@@H](NS(=O)(=O)c1ccc(Oc2ccccn2)cc1)C(=O)O` [Example 4d], the Ki in assay [1] (setting [4]) amounted to 274000 nM; in assay [2], 27000 nM; in assay [3] (setting [5]) it was 11000 nM.

Regarding `CC(C)(SCC(=O)O)[C@@H](NS(=O)(=O)c1ccc(Oc2ccc(F)cc2)cc1)C(=O)O` [Example 5, S-Carboxymethyl--N--[4-(4-fluorophenoxy)benzenesulfonyl]-D-penicillamine], the Ki in assay [1] (setting [4]) stood at 27300 nM; in assay [2], 1620 nM; in assay [3] (setting [5]), 1550 nM.

Turning to `CC(C)(C)[C@@H](NS(=O)(=O)c1ccc(Oc2ccccc2)cc1)C(=O)O` [Example 3r, N-[4-Phenoxybenzenesulfonyl]-D-tert-leucine], the values for the Ki in assay [1] (setting [4]), in assay [2] and in assay [3] (setting [5]) were 12700 nM, 616 nM and 104 nM, respectively.

For `CC(C)(SCc1ccccn1)[C@@H](NS(=O)(=O)c1ccc(Oc2ccc(I)cc2)cc1)C(=O)NO` [Example 9f, 2(S)--N-hydroxy-3-methyl-3-(pyrid-2-yl)methylsulfanyl-2-[(4-(4-iodophenoxy)benzenesulfonyl)amino]butanamide], the Ki in assay [1] (setting [4]) turned out to be 0.29 nM; in assay [2], 0.015 nM.

On to `Cc1cc(CSC(C)(C)[C@@H](NS(=O)(=O)c2ccc(Oc3ccncc3)cc2)C(=O)O)no1` [Example 4b, S--[(5-Methylisoxazol-3-yl)methyl]--N--[4(pyrid-4-yl)oxybenzenesulfonyl]-D-penicillamine], for which the Ki in assay [1] (setting [4]) was 751 nM; in assay [3] (setting [5]) it was 27 nM.

As for `Cc1cc(CSC(C)(C)[C@@H](NS(=O)(=O)c2ccc(Sc3ccncc3)cc2)C(=O)NO)no1` [Example 10b, 2(S)--N-hydroxy-3-methyl-3-(5-methylisoxazol-3-yl)methylsulfanyl-2-[(4-{(pyrid-4-yl)sulfanyl}benzenesulfonyl)amino]butanamide], the Ki turned out to be 38 nM in assay [1] (setting [4]), 1.6 nM in assay [2] and 0.75 nM in assay [3] (setting [5]).

Turning to `Cc1cc(CSC(C)(C)[C@@H](NS(=O)(=O)c2ccc(Oc3ccc(F)cc3)cc2)C(=O)NO)no1` [Example 9c, 2(S)--N-hydroxy-3-methyl-3-(5-methylisoxazol-3-yl)methylsulfanyl-2-[(4-(4-fluorophenoxy)benzenesulfonyl)amino]butanamide], the figures for the Ki in assay [1] (setting [4]) and in assay [3] (setting [5]) were 0.63 nM and 0.024 nM, respectively.

With `Cn1ccnc1CSC(C)(C)[C@@H](NS(=O)(=O)c1ccc(Oc2ccc(Br)cc2)cc1)C(=O)NO` [Example 9n, 2(S)--N-hydroxy-3-methyl-3-(1-methyl-1H-imidazol-2-yl)-methylsulfanyl-2-[(4-(4-bromophenoxy)benzenesulfonyl)amino]butanamide], the Ki in assay [1] (setting [4]) turned out to be 0.2 nM; in assay [3] (setting [5]), 0.11 nM.

Turning to `CC(C)(C)[C@@H](NS(=O)(=O)c1ccc(Oc2ccc(Cl)cc2)cc1)C(=O)O` [Example 3p, N-[4-(4-Chlorophenoxy)benzenesulfonyl]-D-tert-leucine], the Ki in assay [1] (setting [4]) worked out at 9500 nM; in assay [2], 203 nM; in assay [3] (setting [5]), 62 nM.

In the case of `CC(C)(SCc1ccccn1)[C@@H](NS(=O)(=O)c1ccc(Oc2ccc(C(F)(F)F)cc2)cc1)C(=O)O` [Example 3j, N-[4-(4-(trifluoromethyl)phenoxy)benzenesulfonyl]--S--[(pyrid-2-yl)methyl]-D-penicillamine], the Ki in assay [1] (setting [4]) was 2950 nM; in assay [3] (setting [5]), 48 nM.

As to `COC(=O)CCSC(C)(C)[C@@H](NS(=O)(=O)c1ccc(Oc2ccc(F)cc2)cc1)C(=O)O` [Example 7, S--[2-(Methoxycarbonyl)ethyl]--N--[4-(4-fluorophenoxy)benzenesulfonyl]-D-penicillamine], the Ki in assay [1] (setting [4]) turned out to be 10500 nM; in assay [3] (setting [5]), 165 nM.

In the case of `CC(C)(SCCC(N)=O)[C@@H](NS(=O)(=O)c1ccc(Oc2ccc(F)cc2)cc1)C(=O)O` [Example 8b, S--[2-(Aminocarbonyl)ethyl]--N--[4-(4-fluorophenoxy)benzenesulfonyl]-D-penicillamine], the Ki amounted to 5700 nM in assay [1] (setting [4]) and 334 nM in assay [3] (setting [5]).

`Cc1ccc(S(=O)(=O)NCC(=O)NO)cc1` [Compound 13, N-hydroxy-2-(toluene-4-sulfonylamino)acetamide, reference compound]: the Ki was found to be 3400 nM in assay [1] (Table 2, comparative example, read-out: STROMELYSIN Ki) and 3500 nM in assay [3] (Table 2, comparative example, gelatinase A, read-out: GELATINASE Kj).

For the molecule `Cc1cc(CSC(C)(C)[C@@H](NS(=O)(=O)c2ccc(Oc3ccc(Br)cc3)cc2)C(=O)NO)no1` [Example 9d, 2(S)--N-hydroxy-3-methyl-3-(5-methylisoxazol-3-yl)methylsulfanyl-2-[(4-(4-bromophenoxy)benzenesulfonyl)amino]butanamide], the Ki in assay [1] (setting [4]) is 0.24 nM; in assay [2], 0.013 nM.

Consider `CC(C)(SCCO)[C@@H](NS(=O)(=O)c1ccc(Oc2ccc(F)cc2)cc1)C(=O)O` [Example 8a, S--[2-Hydroxyethyl]--N--[4-(4-fluorophenoxy)benzenesulfonyl]-D-penicillamine], for which the Ki in assay [1] (setting [4]) worked out at 12500 nM; in assay [3] (setting [5]), 373 nM.

Regarding `Cc1cc(CSC(C)(C)[C@@H](NS(=O)(=O)c2ccc(Oc3ccncc3)cc2)C(=O)NO)no1` [Example 10a, 2(S)--N-hydroxy-3-methyl-3-(5-methylisoxazol-3-yl)methylsulfanyl-2-[(4-(pyrid-4-yloxy)benzenesulfonyl)amino]butanamide], the results for the Ki in assay [1] (setting [4]) and in assay [3] (setting [5]) were 11.4 nM and 0.32 nM, respectively.

Regarding `CC(C)(O)[C@@H](NS(=O)(=O)c1ccc(Oc2ccc(Br)cc2)cc1)C(=O)O` [Example 3s, N-[4-(4-Bromophenoxy)benzenesulfonyl]-D--(β-hydroxy)valine], the Ki in assay [1] (setting [4]) worked out at 348000 nM; in assay [3] (setting [5]) it was 900 nM.

For the molecule `Cn1ccnc1CSC(C)(C)[C@@H](NS(=O)(=O)c1ccc(Oc2ccc(Br)cc2)cc1)C(=O)O` [Example 3o], the Ki was found to be 2150 nM in assay [1] (setting [4]) and 34 nM in assay [3] (setting [5]).
